Assay results as given in patent US10792236B2, “Dentifrice comprising zinc-amino acid complex” (Colgate-Palmolive Company, priority 2012, dated 2020).
Where “and” joins values, the source holds several entries; their conditions need not be identical. Identical values can stand only once.

Legend:
[1] = Deposition/occlusion assay on dentine slices, confocal imaging; parameters: species or system human
Method: The deposition/occlusion assay is conducted using human dentine slices and the neat solution of Example 5. The dentine slices were prepared by cutting human tooth into thin dentine sections of about 800 microns in thickness, choosing a test side, sanding said test side using a sandpaper of about 600 grit, polishing said test side using a Buehler polishing cloth and 5 micron Buehler aluminum oxide, acid-etching said dentine section in 1% (by weight) citric acid solution for about 20 seconds, sonicating said dentine section for 10 minutes, and storing said dentine section in phosphate buffered saline (PBS, pH 7.4).
For treatment, the neat solution is diluted 16-fold with water, yielding a treatment solution with initial zinc concentration of about 0.149% by weight. The dentine section is immersed in the treatment solution for 1 hour at 37° C. The treated dentine section is then removed from the treatment solution, and rinsed 4 times, each time with 1 mL of PBS. The dentine section is then dried using a paper-based tissue and examined under confocal microscope in both XYZ and XYZ modes. Subsequent treatments are conducted in the same manner.
Dentine sections, as prepared in Example 6, are repeatedly treated with ZLC dilutions with initial zinc concentration of 0.0747% by weight. […] The dentine section is examined under the confocal microscope after each treatment.

[2] = Dilution experiment of ZLC neat solution: visible flocculation/precipitation at 37° C.; type: physicochemical
Method: Various dilutions of ZLC are prepared to evaluate its efficiency in producing visible precipitates and/or flocculation, which can be delivered in situ onto an oral surface or into a dental opening, such as open tubules.
(§1) A neat solution of ZLC is prepared by 1), reacting 0.5 mole of ZnO powder with 1 mole of lysine HCl in 1 liter of water at room temperature for about 2 hours, and 2) collecting the supernatant through centrifugation followed by filtration using a 0.45 micron membrane. The neat solution has a zinc concentration of 2.39% by weight, and a pH of about 7.03.
(§2) Dilution experiment is conducted by mixing the neat solution with deionized water. The neat solution is diluted by 2×, 4×, 6×, 7×, 8×, 10×, 12×, 16×, 20×, 24×, 28×, and 32×, corresponding to initial zinc concentrations of 1.20%, 0.598%, 0.398%, 0.341%, 0.299%, 0.239%, 0.199%, 0.149%, 0.120%, 0.0996%, 0.0854%, 0.0747%, by weight, respectively. The diluted samples are kept at 37° C., and the rates at which flocculation/precipitation occurred are monitored.

[3] = pH of ZLC neat solution and final diluted samples; type: physicochemical; settings: for final pH value: diluted sample
Method: as §1, §2
pH values of final diluted samples are suitable for oral care applications. […] These pH values were well within the range of 5.5 to 10, which defines the suitable range for oral care formulations.

## [Zn(C6H14N2O2)2Cl]^+ Cl^− [ZLC]
[1]; 4 consecutive treatments, initial zinc 0.0747%, 10 minutes at 37° C. each
  deposition/occlusion on dentine surface: significant surface deposition
[1]; 12 consecutive treatments, initial zinc 0.0747%, 10 minutes at 37° C. each
  deposition/occlusion on dentine surface: complete surface coverage
[1]; 32-fold dilution, initial zinc 0.0747%, 10 minutes at 37° C.
  visible precipitation during treatment: no precipitation is observed by naked eyes
[1]; after second treatment, 16-fold dilution, zinc about 0.149%
  thickness of surface deposits: ≥ 10 microns
[1]; after third treatment, 16-fold dilution, zinc about 0.149%
  thickness of surface deposits: ≥ 25 microns
[1]; first treatment, neat solution diluted 16-fold, zinc about 0.149%, 1 hour at 37° C.
  deposition/occlusion on dentine surface: noticeable deposition
[1]; second treatment, 16-fold dilution, zinc about 0.149%, 1 hour at 37° C. each
  deposition/occlusion on dentine surface: complete surface coverage, including blocking of substantially all tubule openings
[1]; third treatment, 16-fold dilution, zinc about 0.149%, 1 hour at 37° C. each
  deposition/occlusion on dentine surface: complete surface coverage and complete blocking of tubule openings
[2]; after a total of 19 hours
  samples with flocculation and/or precipitation: all samples except the one with initial zinc concentration of 1.20%
[2]; two hours after mixing
  initial zinc concentration of additional sample showing flocculation: 0.299%
[2]; within 30 minutes from mixing with water
  initial zinc concentrations of dilutions with visible flocculation: 0.149% and 0.199%
[3]; initial zinc concentration 0.0747%
  final pH value: 7.99
[3]; initial zinc concentration 0.0854%
  final pH value: 8.13
[3]; initial zinc concentration 0.0996%
  final pH value: 8.11
[3]; initial zinc concentration 0.120%
  final pH value: 7.97
[3]; initial zinc concentration 0.149%
  final pH value: 7.99
[3]; initial zinc concentration 0.199 wt %
  final pH value: 6.80
[3]; initial zinc concentration 0.239%
  final pH value: 6.70
[3]; neat solution, zinc 2.39% by weight
  pH: about 7.03
